According to US7807662B2, “Platinum IV complex inhibitor” (University of South Florida, priority 2004, dated 2010):

What was measured:
Stat1 = biological target: T1, Stat1 (Homo sapiens, UniProt P42224); assay: In vitro DNA-binding activity assay with EMSA, Stat1; assay type: biochemical; settings: hSIE probe, pre-incubation with compound
T1 construct: nuclear extracts of equal total protein containing active Stat1, Stat3 and Stat5 were pre-incubated with different concentrations of IS3 295; endogenous in cells; host or cells: nuclear extracts
T1 sequence (P42224 2-750 limits assumed): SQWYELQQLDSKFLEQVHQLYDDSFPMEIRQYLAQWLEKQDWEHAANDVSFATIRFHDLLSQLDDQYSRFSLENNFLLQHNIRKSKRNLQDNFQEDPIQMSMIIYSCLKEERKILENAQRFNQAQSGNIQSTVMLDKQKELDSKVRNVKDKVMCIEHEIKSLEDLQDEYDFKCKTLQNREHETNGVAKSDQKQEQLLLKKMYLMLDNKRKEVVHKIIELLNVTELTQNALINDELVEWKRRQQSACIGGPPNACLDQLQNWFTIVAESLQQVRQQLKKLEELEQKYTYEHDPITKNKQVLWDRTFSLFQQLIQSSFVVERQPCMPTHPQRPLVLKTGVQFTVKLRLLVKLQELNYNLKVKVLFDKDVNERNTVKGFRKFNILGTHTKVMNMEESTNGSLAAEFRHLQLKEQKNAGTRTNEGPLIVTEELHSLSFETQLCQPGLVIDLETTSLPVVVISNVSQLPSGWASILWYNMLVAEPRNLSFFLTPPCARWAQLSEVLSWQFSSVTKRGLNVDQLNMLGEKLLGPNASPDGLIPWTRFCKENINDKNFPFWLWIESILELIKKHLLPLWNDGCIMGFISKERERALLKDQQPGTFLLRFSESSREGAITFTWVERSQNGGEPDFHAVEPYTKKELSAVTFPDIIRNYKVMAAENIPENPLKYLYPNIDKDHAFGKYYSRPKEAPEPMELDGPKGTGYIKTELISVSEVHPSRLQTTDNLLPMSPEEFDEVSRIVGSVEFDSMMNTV
Protocol: (§1) Nuclear extract preparation and gel shift assays—Nuclear extract preparation from v-Src-transformed fibroblasts (NIH3T3/v-Src) or tumor cell lines and electrophoretic mobility shift assay were carried out as previously described (11, 13, 37). The ^32P-labeled oligonucleotide probes used were hSIE (high affinity sis-inducible element, m67 variant, 5′-[…]) (SEQ ID NO:1) that bound Stat1 and Stat3 (13, 45) and MGFe (mammary gland factor element from the bovine β-casein gene promoter, 5′-AGATTTCTAGGAATTCAA) (SEQ ID NO:2) for Stat1 and Stat5 binding (46, 47). Except where indicated, inhibitor compound was pre-incubated with the nuclear extract for 30 minutes at room temperature prior to incubation with radiolabeled probe.
(§2) Compounds from the NCI diversity set were evaluated for inhibition of Stat3 signaling in in vitro DNA-binding activity assay with analysis of electrophoretic mobility shift assay (EMSA). A platinum (IV) complex, IS3 295 (NSC 295558) (FIG. 1E), was identified as potent inhibitor of Stat3, which was further characterized in a number of assays for its anti-Stat3 property. […]

E2F1 = E2F1 (Homo sapiens, UniProt Q01094); assay: In vitro DNA-binding activity assay with EMSA, E2F1 (control); assay type: biochemical; settings: DHFR promoter sequence probe
Source text: In control studies, the effect of IS3 295 was investigated on the DNA-binding activity of E2F1 that was unrelated to Stat proteins.

Stat3 [1] = biological target: T2, Stat3 (Homo sapiens, UniProt P40763); assay: In vitro DNA-binding activity assay with EMSA, Stat3; assay type: biochemical; settings: hSIE probe, pre-incubation with compound
T2 construct: nuclear extracts of equal total protein containing active Stat1, Stat3 and Stat5 were pre-incubated with different concentrations of IS3 295; endogenous in cells; host or cells: nuclear extracts
Protocol: as §1, §2

Stat5 = assay: In vitro DNA-binding activity assay with EMSA, Stat5; assay type: biochemical; settings: MGFe probe
Protocol: as §1, §2

Stat3 [2] = biological target: T2, Stat3; settings: from reference 35; cited from earlier work

T2 sequence (P40763 2-770 limits assumed, species assumed): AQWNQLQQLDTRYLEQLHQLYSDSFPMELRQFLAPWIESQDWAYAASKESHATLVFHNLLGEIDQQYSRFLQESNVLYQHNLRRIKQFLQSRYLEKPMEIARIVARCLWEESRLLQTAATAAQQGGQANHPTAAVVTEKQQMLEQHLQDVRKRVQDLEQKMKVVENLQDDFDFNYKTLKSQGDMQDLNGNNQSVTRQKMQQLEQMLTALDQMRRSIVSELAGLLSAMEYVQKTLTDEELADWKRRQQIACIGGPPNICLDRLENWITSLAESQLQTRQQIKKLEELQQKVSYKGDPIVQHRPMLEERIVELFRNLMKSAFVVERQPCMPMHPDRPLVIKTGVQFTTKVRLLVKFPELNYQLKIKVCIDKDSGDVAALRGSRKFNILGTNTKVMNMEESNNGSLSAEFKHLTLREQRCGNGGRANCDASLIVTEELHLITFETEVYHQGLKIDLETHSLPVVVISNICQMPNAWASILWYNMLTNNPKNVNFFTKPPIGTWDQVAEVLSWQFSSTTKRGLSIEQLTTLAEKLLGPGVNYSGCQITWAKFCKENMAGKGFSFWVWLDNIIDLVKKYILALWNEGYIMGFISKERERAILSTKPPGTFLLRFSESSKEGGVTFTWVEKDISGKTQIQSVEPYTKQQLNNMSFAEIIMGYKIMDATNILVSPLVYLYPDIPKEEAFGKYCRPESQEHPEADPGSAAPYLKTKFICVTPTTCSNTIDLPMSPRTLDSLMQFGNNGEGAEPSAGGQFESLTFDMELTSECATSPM
Sequence of E2F1 (Q01094 whole entry, species assumed): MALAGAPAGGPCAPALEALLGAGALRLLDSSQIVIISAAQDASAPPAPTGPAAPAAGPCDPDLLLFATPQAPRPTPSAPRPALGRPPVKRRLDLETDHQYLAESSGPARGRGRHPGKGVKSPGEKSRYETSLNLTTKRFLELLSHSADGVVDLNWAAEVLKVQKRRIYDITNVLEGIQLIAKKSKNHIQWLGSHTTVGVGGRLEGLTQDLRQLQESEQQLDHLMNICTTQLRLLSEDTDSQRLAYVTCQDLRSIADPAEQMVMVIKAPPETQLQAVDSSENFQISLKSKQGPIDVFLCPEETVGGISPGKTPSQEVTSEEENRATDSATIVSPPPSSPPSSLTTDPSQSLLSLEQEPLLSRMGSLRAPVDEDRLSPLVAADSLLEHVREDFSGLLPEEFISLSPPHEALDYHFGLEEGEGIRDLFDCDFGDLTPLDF

N.N.[Cl][Pt][Cl] [cisplatin, reference compound]
level of DNA-binding activity of Stat1 (Stat1): no detectable effect | E2F1 DNA-binding activity (E2F1): no detectable effect | level of DNA-binding activity of Stat3 (Stat3 [1]): no detectable effect | level of DNA-binding activity of Stat5:Stat5 dimers (Stat5): no detectable effect | effect on Stat3 activity (Stat3 [2]): no effect
